Values quoted from earlier work in patent US7148216B2, “Combinations of drugs for the treatment of neoplastic disorders” (CombinatoRx, Inc., priority 2000, dated 2006).
Read-outs that look alike come from different tables or passages of the source.

N=C(N)c1ccc(OCCCCCOc2ccc(C(=N)N)cc2)cc1 [pentamidine isethionate, 4,4′-diamidino-diphenoxypentane di(β-hydroxyethanesulfonate)]
solubility (in ether, acetone, and chloroform): insoluble | solubility (in water and glycerin): soluble
